Test results taken from patent US11319331B2, “Probe for selective detection of hypochlorous acid (HOCl) under physiological condition, and related methods” (Council of Scientific & Industrial Research, priority 2017, dated 2022).

Experiments:
[1] = S/N=3 where stated; cited from earlier work
[2] = Procedure: (§1) Unless and otherwise mentioned, 10 mM and pH 7.2 solution of aq. PBS buffer was used for all spectroscopic studies. All reactive Oxygen species and nitrogen species solutions of 1×10^-2 M were prepared in PBS having pH 7.2 and used with appropriate dilution. All luminescence measurements were done using λEx=550 nm with an emission slit width of 2/2 nm. For all biological studies, 0.6% DMSO in DMEM media was used.
The detection limit was calculated based on the fluorescence titration.

[3] = SF-1 10 μM, 2 mM HOCl, PBS-acetonitrile (9:1, v/v), pH 7.2, 37° C.
Procedure: Accordingly, all studies are carried out at physiological relevant pH […].
as §1

RAW 264.7 cells = assay: MTT assay, in vitro cytotoxicity / cell viability; conditions: read-out: IC50 (MTT cell viability), treated 24 hours

Compound | detection limit for HOCl/HClO (literature) [1] [nM] | detection limit for HOCl ([2]; aq. PBS buffer-acetonitrile (9:1, v/v), 3 s method) [nM] | Detection Limit for HOCl (DL=K*Sb1/S, K=3) ([2]; slope 2.50×109, Sb1 3.59) [nM] | enhancement of luminescence intensity with increasing dose of HOCl ([2]; λEm Max 580 nm, λExt 540 nm) [fold] | time to completion of reaction with HOCl [3] [min] | IC50 (RAW 264.7 cells) [µM]
CC1=CC(C)=[N+]2C1=C(CCc1[nH]c(C)cc1C)c1c(C)cc(C)n1[B-]2(F)F [BClO] | 0.56 |  |  |  |  | 
E)-4-(2-(5,5-difluoro-1,7,9-trimethyl-10-phenyl-5H-5λ^4,6λ^4-dipyrrolo[1,2-c:2′,1′-f][1,3,2]diazaborinin-3-yl)vinyl)benzene-1,2-diol [SF-1] |  | 4.3 | 4.3 | 20 | ≤ 15 | > 150
